# Results: paper PMC9227305, “Photoinduced Synthesis of Methylated Marine Cyclopeptide Galaxamide Analogs with Isoindolinone as Anticancer Agents” (Marine Drugs, 2022)
# *1 amine or outer side, *2 acyl side, *3 side chain or, on linkers, in order; H or OH if unused. Where a SMILES comes first, the peptide text is derived from it. [ ]: non-standard residue; d: D form. X1 = O=C1c2ccccc2[C@@](O)(CN(Cc2ccccc2)[*:1])N1CC(=O)[*:2]; NMeL = CN[C@@H](CC(C)C)C(=O)O
# Key:
# HepG-2 cells [1] = test: cells; conditions: compound 8 vs compound 4
# Description: (§1) The antitumor activity of the prepared cyclic peptides against human hepatocellular carcinoma cells (HepG-2), human cervical cancer cell lines (HeLa) and human breast cancer cells (MDA-MB-231) was examined by MMT assay, and the mouse fibroblast L929 cells were used as the model cells to evaluate the toxicity of cyclopeptides to normal cell lines. Due to the absence of an authentic standard, taxol was chosen as a control because it is a widely used chemotherapeutic drug for the treatment of various cancers, including liver cancer.
# (§2) Samples were dissolved in DMSO and diluted into different concentrations ([…], 18.75, 25, 37.5, 50, 75, 100 and 250 μM) and stored at 4 °C. Cells in the logarithmic growth phase were digested with trypsin and then seeded in 96-well plates at a density of 2 × 10^4 cells/well in 100 μL of culture medium. The cells were treated with different concentrations of the tested compound, and a blank control group without the drug was also set up. Six wells were repeated for each dose. After 48 h of co-incubation, MTT solution (100 μL, 0.5 mg/mL) was added, followed by incubation for another 4 h. After discarding the supernatant, 100 μL of DMSO was added per well, and the absorbance (OD) values were measured at 490 nm using an enzyme marker. Cell viability was calculated by the formula: Cell viability (%) = As/Ab × 100% (where As is the absorbance value of the experimental group and Ab is the absorbance value of the blank group). The obtained data were processed using SPSS19 software to obtain IC50 values.
# L929 cells = test: cells; conditions: 48 h
# Description: as §1, §2
# MDA-MB-231 cells = format: cell-based, human; conditions: 48 h
# Description: as §1, §2
# HepG-2 cells [2] = test: Cell cycle analysis by PI flow cytometry; format: cell-based, human
# Experimental: The four phases in the cell cycle, mitosis (M), gap 1 (G1), synthesis of DNA (S), and gap 2 (G2), can be analysized by a commonly used dye, propidium iodide (PI), which could intercalate into the major groove of double-stranded DNA and produce a highly fluorescent adduct that can be detected due to its broad emission around 600 nm. In this research, the drug-treated tumor cells were fixed overnight at 4 °C with 70% ice-cold ethanol and then treated with Rnase A/PI for 60 min at 37 °C and analyzed by flow cytometry.
# HepG-2 cells were inoculated in 6-well plates and incubated for 24 h. Then, different concentrations of compound 8 were added to the wells and incubated for the required time. The collected cells in the experimental and control groups were digested with trypsin, centrifuged (1000 r/min, 5 min), resuspended in PBS and fixed by 70% ice ethanol (3 mL) at −20 °C for 24 h. Then, cells were washed twice with PBS and resuspended in PBS (0.9 mL), then treated with 100 µL RNase (100 µg/mL) for 30 min at 37 °C. After centrifuging the mixture for 5 min, the cells were resuspended in 50 µg/mL PBS and stained with 600 µL of PI solution (Beyotime Biotechnology, Shanghai, China) for 60 min at 4 °C to stain. Finally, the physical properties of individual cells at different mitotic stages were analyzed by flow cytometry (BD Accuri C6, BD Biosciences, Franklin Lakes, NJ, USA).
# [3] = tested on: lactate dehydrogenase in HepG-2 cells; test: Lactate dehydrogenase (LDH) activity assay in cells; format: cell-based, human; conditions: 48 h
# Description: The accumulation of lactate dehydrogenase can produce lactate metabolites and cause the deterioration of tumor cells. By inhibiting lactate dehydrogenase activity, the energy supply of tumor cells would be blocked, thus reducing their metastasis and progression. Therefore, in this paper, we also investigated the inhibitory activity of compound 8 on lactate dehydrogenase in HepG-2 cells. It has been known that LDH could catalyze lactic acid to generate pyruvate, which could react with 2,4-dinitrophenylhydrazine (DNPH) to form dinitrophenyl-pyruvate and form a reddish-brown product after reacting with an alkaline solution. The obtained product can be assessed by visible spectrophotometry. […]
# Lactate dehydrogenase activity of HepG-2 cells treated with compound 8 was examined by using the Lactate Dehydrogenase Kit (Beijing Solarbio Science & Technology, Beijing, China) according to the instructions for use. […] Then the other reagents in the Lactate Dehydrogenase Kit (Beyotime Biotechnology, Shanghai, China) were added according to the instructions, and the absorption of the mixture was measured by the spectrophotometer. […] The absorption of the standard solution at 450 nm was measured to plot the standard curve. […]
compound,measurement,setting,value
"CC(C)C[C@@H]1NC(=O)CN2C(=O)c3ccccc3[C@@]2(O)CN(Cc2ccccc2)C(=O)[C@H](CC(C)C)NC(=O)[C@H](CC(C)C)N(C)C(=O)[C@H](CC(C)C)NC(=O)[C@H](CC(C)C)NC1=O [Compound 8, 3-Hydroxy-isoindolinone-cyclo-Gly-Leu-N-Me-Leu-Leu-Leu-Leu] (cyclo(LL[NMeL]L[X1]L))",antitumor activity relative to compound 4,HepG-2 cells [1],eight times stronger
same,IC50,L929 cells,> 400 µM
same,IC50,MDA-MB-231 cells,41.7 ± 3.2 µM
same,4N (G2/M phase) cells,"HepG-2 cells [2]; 5.5 μM, 48 h",12.0%
same,4N (G2/M phase) cells,"HepG-2 cells [2]; 11 μM, 12 h",10.1%
same,4N (G2/M phase) cells,"HepG-2 cells [2]; 11 μM, 24 h",17.4%
same,4N (G2/M phase) cells,"HepG-2 cells [2]; 11 μM, 48 h",25.8%
same,4N (G2/M phase) cells,"HepG-2 cells [2]; 22 μM, 48 h",33.0%
same,effect on lactate dehydrogenase activity,[3],significant decrease
